What all share (assay): DTP human tumour cell line panel, 48 h
For test [1], the system named is 786-0 renal.
Test [2] has as its system EKVX NSCLC.
The subject of test [3] is MDA-MB-435.
Test [4] has as its system MOLT-4 leukemia.
The subject of test [5] is U251 CNS.
For test [6], the system named is OVCAR-8 ovarian.
Test [7] deals with K-562 leukemia.
Test [8] has as its system MALME-3M melanoma.
For test [9], the system named is HCC-2998 colon.
In test [10] the test system is HCT-116 colon.

Several values for one entry are separate records, joined by “and”; a condition that tells them apart may be missing. Equal entries are not always repeated.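 All cell lines were grown in 96-well plates and treated with compound for 48 hours. Here, GI50 denotes the concentration required for 50% inhibition of growth. TGI marks complete inhibition of growth.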

Usually TGI stands for the concentration giving total growth inhibition. Lower therefore signals greater sensitivity of the cells. As usually defined, the GI50 is the concentration at which growth is held to half of that of the control.

`Cc1c2oc3c(C)cc(F)c(C(=O)NC4C(=O)NC(C(C)C)C(=O)N5CCCC5C(=O)N(C)CC(=O)N(C)C(C(C)C)C(=O)OC4C)c3nc-2c(C(=O)NC2C(=O)NC(C(C)C)C(=O)N3CCCC3C(=O)N(C)CC(=O)N(C)C(C(C)C)C(=O)OC2C)c(N)c1=O` (stereo not given): the TGI is 78.5 µM in test [1]; 46.8 µM in test [2]; 1.42 µM and 1.19 µM in [3]; 0.00545 µM in test [4]; 25.9 µM in test [5]. The GI50 was 0.767 µM in test [2] and 0.142 µM in test [6].
With `COc1ccc(C2C(C#N)=C(S)N(C3OC(CO)C(O)C(O)C3O)C(C)=C2C(C)=O)cc1` (stereo not given), the TGI in test [1], in [7], in test [8], in test [9], in test [3] and in [4] was more than 100 µM each time. Also, the TGI in test [5], in test [10] and in test [6] was more than 100 µM each time.
Turning to `OCC1OC(c2ccccc2)CC1O` (stereo not given), the TGI in test [1], in [7], in [2], in test [3], in test [4] and in test [5] was more than 100 µM each time. In addition, the concentration for total growth inhibition (TGI) in test [10] and in test [6] was more than 100 µM throughout.
Consider `O=c1[nH]c(=O)n(COCc2ccccc2)c2ccccc12`, for which the TGI in [1], in [7], in [2], in test [3], in [4] and in [5] was more than 100 µM in each case. Further, the TGI in [10] and in test [6] was more than 100 µM throughout.
As for `O=c1c2cc(I)ccc2nc(SCc2nnco2)n1Cc1ccccc1`, the concentration for total growth inhibition (TGI) in test [1] is more than 100 µM; in test [9], more than 100 µM; in test [2], more than 100 µM; in test [3], more than 100 µM; in test [4], 47.4 µM; in [5], more than 100 µM. Further, the TGI in test [10] and in test [6] was more than 100 µM in each case.
Consider `O=C1CCC2(c3ccc(Cl)cc3)Nc3ncncc3N12` (stereo not given), for which the TGI in test [1], in [7], in test [8], in [9], in [2] and in test [3] was more than 10 µM throughout. For the same compound, the concentration for total growth inhibition (TGI) in test [4], in test [5] and in test [6] was more than 10 µM each time.
Take `C1=CN2C[n+]3ccc4ccccc4c3N=C2c2ccccc21`: the TGI in [1] was 10.3 µM; in test [7], 12.5 µM; in test [8], 3.46 µM; in [2] it was 38.8 µM; in test [3] it was 7.24 µM; in test [4] it was 13.3 µM. For the same compound, the TGI in [5] is 10.2 µM; in test [10], more than 100 µM; in [6], 24.9 µM.
With `CC1CCOc2ccc(cc2)C=Nc2ccc(cc2)-c2ccc(cc2)N=Cc2ccc(cc2)OCC1` (stereo not given), the total growth inhibition concentration (TGI) in test [1], in test [7], in [9], in [2], in [3] and in test [4] was more than 100 µM throughout. The total growth inhibition concentration (TGI) in test [5], in test [10] and in [6] was more than 100 µM in each case.
`CC1=CC(=O)/C(=C/n2c(=S)[nH]c3cc(C)ccc32)C(=O)O1`: the TGI in test [1], in test [9], in [2], in test [3], in test [4] and in [5] was more than 100 µM throughout. For the same compound, the TGI in [10] and in [6] was more than 100 µM in each case.
With `C[N+]1([O-])[C@H]2CC(OC(=O)[C@H](CO)c3ccccc3)C[C@H]1[C@H]1O[C@H]12` (stereo not given in full), the concentration for total growth inhibition (TGI) in test [1], in [7], in test [8], in test [2], in test [3] and in [4] was more than 100 µM throughout. Besides, the TGI in test [5], in test [10] and in [6] was more than 100 µM in each case.
`COc1cc([C@@H]2c3cc4c(cc3[C@@H](c3c(O)cc(O)c5c3O[C@H](c3ccc(O)c(O)c3)[C@H](OC(=O)c3cc(O)c(O)c(O)c3)C5)[C@H]3COC(=O)[C@H]23)OCO4)cc(OC)c1O`: the concentration for total growth inhibition (TGI) in test [1] is more than 100 µM; in test [8], more than 100 µM; in test [9], 92.3 µM; in test [2] it was more than 100 µM; in test [3], 57.3 µM; in test [4], more than 100 µM. Further, the concentration for total growth inhibition (TGI) in test [5], in [10] and in test [6] was more than 100 µM in each case.
Regarding `CC(C)(C)OC(=O)n1c(Cl)c(C=O)c2ccccc21`, the TGI is 46.6 µM in [1]; more than 100 µM in test [7]; 39.9 µM in [8]; 76.6 µM in [2]; more than 100 µM in test [3]; more than 100 µM in [4]. The TGI in test [5] and in test [6] was more than 100 µM each time.
Take `COc1cc(/C(=C2/O[C@@H]([C@H]3COC(C)(C)O3)[C@H]3OC(C)(C)O[C@@H]23)c2ccc3c(c2)OCO3)cc(OC)c1OC`: the GI50 in test [7], in test [8], in [9], in [2], in [3] and in [4] was more than 25 µM each time. Further, the GI50 in test [5] and in test [6] was more than 25 µM in each case. Moreover, the TGI in [7], in [8], in [9], in test [2], in [3] and in [4] was more than 25 µM each time. The TGI in [5] and in test [6] was more than 25 µM each time.
For `CCCCOc1ccc2c(c1)CC[C@@H]1[C@@H]2CC[C@]2(C)C(=O)N(CCCC)C(=O)C[C@@H]12`, the TGI in test [7], in test [8], in test [9], in test [3], in test [4] and in [5] was more than 100 µM each time. Besides, the TGI in test [10] and in test [6] was more than 100 µM in each case.
